Reference: patent US20180325914A1, “INCREASING STORAGE OF VITAMIN A, VITAMIN D AND/OR LIPIDS” (Salk Institute for Biological Studies, priority 2014, published 2018)

Tested on: primary HSCs
Conditions: Day_6_JQ1

SMILES: Cc1sc2c(c1C)C(c1ccc(Cl)cc1)=N[C@@H](CC(=O)OC(C)(C)C)c1nnc(C)n1-2 [JQ1, (S)-tert-butyl 2-(4-(4-chlorophenyl)-2,3,9-trimethyl-6H-thieno[3,2-f][1,2,4]triazolo[4,3-a][1,4]diazepin-6-yl)acetate]
- 1110067D22Rik value_2: 7.6991
- 9930013L23Rik value_2: 31.3095
- A430110N23Rik value_2: 1.529
- Acot11 value_2: 1.6538
- Acpl2 value_2: 7.205
- Adam8 value_2: 11.9385
- Adamts12 value_2: 17.1447
- Adcy1 value_2: 0.8092
- Adcy5 value_2: 0.9801
- Adcy7 value_2: 3.439
- Aif1l value_2: 1.208
- Akap5 value_2: 1.478
- Aldh1a2 value_2: 19.1605
- Aldh1l1 value_2: 1.536
- Aldh1l2 value_2: 7.698
- Ankrd55 value_2: 7.519
- Apbb1ip value_2: 18.5518
- Apbb1 value_2: 7.273
- Arhgef6 value_2: 2.025
- Arhgef25 value_2: 25.9937
- Arl5a value_2: 37.4802
- Arsb value_2: 16.7663
- Avpr1a value_2: 1.651
- B3galnt1 value_2: 2.653
- B4galt2 value_2: 15.1944
- Bag2 value_2: 14.4878
- Bdnf value_2: 4.6088
- Bnip3 value_2: 18.6877
- Boc value_2: 14.1708
- Cacng7 value_2: 2.276
- Casp12 value_2: 4
- Ccbe1 value_2: 26.2027
- Ccnd2 value_2: 143.49
- Ccng1 value_2: 163.356
- Cd276 value_2: 5.674
- Cdh11 value_2: 17.4722
- Celf2 value_2: 11.1573
- Cercam value_2: 9.775
- Chpf value_2: 51.0364
- Chst12 value_2: 44.2429
- Chsy3 value_2: 4.1726
- Cnrip1 value_2: 15.1406
- Col1a1 value_2: 830.694
- Col4a5 value_2: 36.069
- Col12a1 value_2: 37.8465
- Col16a1 value_2: 5.064
- Copz2 value_2: 47.0355
- Cplx2 value_2: 3.358
- Crispld2 value_2: 4.912
- Crlf1 value_2: 26.6612
- Csrp2 value_2: 137.115
- Cul7 value_2: 19.1665
- Cxx1c value_2: 13.5431
- D4Bwg0951e value_2: 30.19
- Ddah1 value_2: 10.4898
- Dhrs1 value_2: 30.0462
- Dmpk value_2: 26.4788
- Dnpep value_2: 41.0591
- Dpysl3 value_2: 14.2712
- Dynlrb1 value_2: 162.462
- Dzip1l value_2: 10.8578
- Emp2 value_2: 8.903
- Enpp5 value_2: 25.6268
- Ext1 value_2: 80.2965
- Extl3 value_2: 35.6167
- Fah value_2: 1.793
- Fam19a5 value_2: 1.344
- Fam20a value_2: 11.2001
- Fam38b value_2: 3.39
- Fam110c value_2: 13.4372
- Fam132a value_2: 4.331
- Fap value_2: 1.601
- Fbxw9 value_2: 14.3107
- Fkbp7 value_2: 40.2493
- Fmod value_2: 2.369
- Fndc1 value_2: 15.189
- Fndc4 value_2: 1.244
- Folr1 value_2: 1.905
- Foxc2 value_2: 1.453
- Foxf2 value_2: 1.6602
- Frzb value_2: 144.416
- Fstl3 value_2: 14.8692
- Fzd6 value_2: 2.328
- Gdf6 value_2: 25.9944
- Gm2a value_2: 22.5206
- Gm14420 value_2: 13.7546
- Gmpr value_2: 8.026
- Gpc1 value_2: 10.285
- Gpc4 value_2: 94.2819
- Gpr39 value_2: 22.0499
- Gpr133 value_2: 3.842
- Gpr180 value_2: 14.9448
- Gria4 value_2: 2.6
- Gys1 value_2: 11.4841
- Hk2 value_2: 9.851
- Hoxb2 value_2: 33.6747
- Hrct1 value_2: 3.228
- Hs6st2 value_2: 23.4423
- Hspb1 value_2: 104.396
- Hspg2 value_2: 105.328
- Igf2 value_2: 3.249
- Igfbp2 value_2: 2.5845
- Iglon5 value_2: 2.148
- Ikbip value_2: 68.3911
- Itga5 value_2: 44.6427
- Jub value_2: 23.4821
- Kank1 value_2: 15.8777
- Kazald1 value_2: 4.522
- Kcne4 value_2: 8.547
- Kdm5b value_2: 17.3352
- Kif21b value_2: 8.145
- Kif26b value_2: 3.17
- Klhl26 value_2: 25.6223
- Lclat1 value_2: 20.6695
- Lepre1 value_2: 61.4792
- Leprel1 value_2: 4.84
- Leprel2 value_2: 31.892
- Lgals1 value_2: 1464.5
- Lims2 value_2: 12.2591
- Lox13 value_2: 12.0376
- Loxl1 value_2: 78.0679
- Loxl2 value_2: 668.398
- Lrrn2 value_2: 1.8093
- Mageh1 value_2: 22.8542
- Man2b2 value_2: 26.9926
- Mpzl1 value_2: 88.2456
- Mrvi1 value_2: 2.602
- Myh10 value_2: 34.498
- Myh11 value_2: 6.328
- Myl6 value_2: 531.936
- Mylk value_2: 62.0714
- Myo1d value_2: 22.5024
- Myof value_2: 42.2087
- Ncam1 value_2: 8.073
- Ndrg2 value_2: 12.6911
- Nexn value_2: 6.343
- Nid2 value_2: 130.153
- Nts value_2: 3.21
- Numbl value_2: 22.4916
- Obsl1 value_2: 3.108
- P4ha1 value_2: 120.896
- Palld value_2: 17.5752
- Pcsk5 value_2: 4.88
- Pde1a value_2: 9.282
- Pdlim4 value_2: 4.7862
- Pfkfb4 value_2: 2.359
- Phlda3 value_2: 132.249
- Phldb2 value_2: 149.373
- Phyhd1 value_2: 3.552
- Pla2g15 value_2: 24.3031
- Plac8 value_2: 104.172
- Plekhg3 value_2: 18.1798
- Plp2 value_2: 16.6661
- Plscr2 value_2: 7.544
- Plscr4 value_2: 8.1813
- Pmepa1 value_2: 29.4329
- Pmm1 value_2: 54.8681
- Pmp22 value_2: 85.9788
- Podn value_2: 1.458
- Polr3k value_2: 22.8928
- Pon3 value_2: 19.5497
- Popdc2 value_2: 4.263
- Ppapdc1b value_2: 13.4067
- Ppp1r14a value_2: 20.201
- Pppde2 value_2: 20.4808
- Prdx2 value_2: 167.804
- Prickle1 value_2: 14.268
- Prrc1 value_2: 19.9334
- Psrc1 value_2: 6.874
- Pter value_2: 1.743
- Ptpla value_2: 12.4632
- Ptplad2 value_2: 8.106
- Pvrl2 value_2: 81.9103
- Pygl value_2: 3.275
- Rab7l1 value_2: 5.901
- Rab15 value_2: 1.498
- Rab34 value_2: 55.2701
- Rab3d value_2: 8.99
- Rftn2 value_2: 1.387
- Rhobtb3 value_2: 13.6471
- Rnft1 value_2: 17.8003
- Ror1 value_2: 6.1328
- Rprd1a value_2: 7.118
- Runx2 value_2: 3.741
- Ryk value_2: 55.3732
- S100a1 value_2: 70.3658
- Sardh value_2: 3.193
- Sat2 value_2: 5.26
- Sce1 value_2: 3.6703
- Selm value_2: 80.5867
- Sepx1 value_2: 93.1036
- Serpine2 value_2: 7.825
- Serpinh1 value_2: 1190.39
- Setd7 value_2: 32.7601
- Sfrp1 value_2: 33.2277
- Sgce value_2: 7.751
- Sh3gl3 value_2: 1.09
- Sh3kbp1 value_2: 10.1373
- Shisa3 value_2: 4.345
- Skp2 value_2: 4.997
- Slc2a10 value_2: 2.062
- Slc35a2 value_2: 23.1121
- Slc44a2 value_2: 59.6308
- Slit3 value_2: 39.3977
- Snai1 value_2: 35.4904
- Snta1 value_2: 25.2902
- Snx30 value_2: 13.1255
- Sparcl1 value_2: 5.629
- Speg value_2: 7.409
- Spp1 value_2: 226.746
- Srgap3 value_2: 1.389
- Srpx value_2: 2.6404
